Assay results: patent US20100298141A1, “SUBSTITUTED PYRIDINE N-OXIDE HERBICIDES” (E. I. DU PONT DE NEMOURS AND COMPANY, priority 2007, published 2010)

What was measured:
crabgrass [1] = experiment: Test C pre-/postemergence test; assay type: in vivo, Digitaria sanguinalis; conditions: for Plant response rating, Crabgrass, Large: scale 0 to 100, 0 no effect, 100 complete control
How it was run: (§1)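 Test chemicals were formulated with surfactant in a non-phytotoxic solvent and sprayed both on freshly planted seeds (preemergence) and on 1- to 4-leaf plants of 2–18 cm (postemergence). Flooded-paddy pots received compound directly into 3 cm of standing water, maintained for the test.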

crabgrass [2] = experiment: Test A pre-/postemergence greenhouse test; assay type: in vivo, Digitaria sanguinalis; conditions: for Crabgrass, Large plant response rating: 0 to 100 scale
How it was run: (§2)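 Two application timings were run side by side in the greenhouse. Before emergence, compound went onto the soil surface of loam–sand pots as a directed spray; after emergence, plants at 2–10 cm and the one- to two-leaf stage were treated. Visual injury versus controls was rated at approximately day ten.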

[3] = system: common (oilseed) sunflower; experiment: Test C pre-/postemergence test; assay type: in vivo, Helianthus annuus; conditions: for Sunflower plant response rating: preemergence, scale 0 (no effect) to 100 (complete control)
How it was run: as §1

pigweed = experiment: Test C pre-/postemergence test; assay type: in vivo, Amaranthus retroflexus; conditions: for Plant response rating, Pigweed: scale 0 to 100, 0 no effect, 100 complete control
How it was run: as §1

Surinam grass = experiment: Test C pre-/postemergence test; assay type: in vivo, Brachiaria decumbens; conditions: for Surinam Grass plant response rating: preemergence, scale 0 (no effect) to 100 (complete control); for Plant response rating, Surinam Grass: scale 0 to 100, 0 no effect, 100 complete control
How it was run: as §1

bermudagrass = experiment: Test C pre-/postemergence test; assay type: in vivo, Cynodon dactylon; conditions: for Plant response rating, Bermudagrass: scale 0 to 100, 0 no effect, 100 complete control
How it was run: as §1

morningglory = experiment: Test A pre-/postemergence greenhouse test; assay type: in vivo, Ipomoea spp.; conditions: for Morningglory plant response rating: 0 to 100 scale
How it was run: as §2

lambsquarters = experiment: Test C pre-/postemergence test; assay type: in vivo, Chenopodium album; conditions: for Plant response rating, Lambsquarters: scale 0 to 100, 0 no effect, 100 complete control
How it was run: as §1

soybean = experiment: Test C pre-/postemergence test; assay type: in vivo, Glycine max; conditions: for Plant response rating, Soybean: scale 0 to 100, 0 no effect, 100 complete control
How it was run: as §1

cocklebur = experiment: Test C pre-/postemergence test; assay type: in vivo, Xanthium strumarium; conditions: for Plant response rating, Cocklebur: scale 0 to 100, 0 no effect, 100 complete control
How it was run: as §1

Goosegrass = experiment: Test C pre-/postemergence test; assay type: in vivo, Eleusin indica; conditions: for Plant response rating, Goosegrass: scale 0 to 100, 0 no effect, 100 complete control
How it was run: as §1

barnyardgrass [4] = experiment: Test C flooded paddy test; assay type: in vivo, Echinochloa crus-galli; conditions: Flood
How it was run: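 Flooded 3 cm over soil; compound into paddy water; depth kept constant. Greenhouse 13–15 d.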

Italian ryegrass = experiment: Test C pre-/postemergence test; assay type: in vivo, Lolium multiflorum; conditions: for Ryegrass, Italian plant response rating: preemergence, scale 0 (no effect) to 100 (complete control); for Plant response rating, Ryegrass, Italian: scale 0 to 100, 0 no effect, 100 complete control
How it was run: as §1

giant foxtail = experiment: Test A pre-/postemergence greenhouse test; assay type: in vivo, Setaria faberi; conditions: for Foxtail, Giant plant response rating: 0 to 100 scale
How it was run: as §2

kochia = experiment: Test C pre-/postemergence test; assay type: in vivo, Kochia scoparia; conditions: for Plant response rating, Kochia: scale 0 to 100, 0 no effect, 100 complete control
How it was run: as §1

barnyardgrass [5] = experiment: Test A pre-/postemergence greenhouse test; assay type: in vivo, Echinochloa crus-galli; conditions: for Barnyardgrass plant response rating: 0 to 100 scale
How it was run: as §2

[6] = 31 g ai/ha, Preemergence, scale 0 to 100
[7] = 62 g ai/ha, preemergence, scale 0 (no effect) to 100 (complete control)
[8] = preemergence, 125 g ai/ha, scale 0 (no effect) to 100 (complete control)
[9] = Postemergence, 125 g ai/ha, 0 is no effect, 100 is complete control
[10] = Postemergence, 500 g ai/ha, 0 is no effect, 100 is complete control
[11] = Preemergence, 125 g ai/ha, 0 no effect, 100 complete control
[12] = Preemergence, 500 g ai/ha, 0 to 100 scale where 0 is no effect and 100 is complete control

Cc1cc[n+]([O-])c(S(=O)(=O)Cc2c(C(F)(F)F)nn(C)c2OC(F)F)c1 [Compound 2]
Crabgrass, Large plant response rating (crabgrass [1]; [6]): 70 | Crabgrass, Large plant response rating (crabgrass [1]; [7]): 100 | Plant response rating (0 to 100), Crabgrass, Large (crabgrass [1]; Postemergence, 31 g ai/ha): 0 | Plant response rating, Crabgrass, Large (crabgrass [1]; Postemergence, 62 g ai/ha): 0 | Plant response rating, Crabgrass, Large (crabgrass [1]; Postemergence, 125 g ai/ha): 0 | Plant response rating, Crabgrass, Large (crabgrass [1]; Postemergence, 250 g ai/ha): 40 | Plant response rating (0 to 100), Crabgrass, Large (crabgrass [1]; Preemergence, 250 g ai/ha): 100 | Crabgrass, Large plant response rating (crabgrass [1]; [8]): 100 | Crabgrass, Large plant response rating (crabgrass [2]; [9]): 70 | Crabgrass, Large plant response rating (crabgrass [2]; [10]): 90 | Crabgrass, Large plant response rating (crabgrass [2]; [11]): 90 | Plant response rating, Crabgrass, Large (crabgrass [2]; [12]): 100 | Sunflower plant response rating ([3]; 62 g ai/ha): 5 | Plant response rating (0 to 100), Sunflower ([3]; Preemergence, 250 g ai/ha): 100 | Sunflower plant response rating ([3]; 125 g ai/ha): 80 | Pigweed plant response rating (pigweed; [6]): 100 | Pigweed plant response rating (pigweed; [7]): 100 | Plant response rating (0 to 100), Pigweed (pigweed; Postemergence, 31 g ai/ha): 0 | Plant response rating (0 to 100), Pigweed (pigweed; Postemergence, 62 g ai/ha): 0 | Plant response rating, Pigweed (pigweed; Postemergence, 125 g ai/ha): 0 | Plant response rating, Pigweed (pigweed; Postemergence, 250 g ai/ha): 0 | Plant response rating (0 to 100), Pigweed (pigweed; Preemergence, 250 g ai/ha): 100 | Pigweed plant response rating (pigweed; [8]): 100 | Surinam Grass plant response rating (Surinam grass; 62 g ai/ha): 100 | Plant response rating (0 to 100), Surinam Grass (Surinam grass; Postemergence, 31 g ai/ha): 0 | Plant response rating (0 to 100), Surinam Grass (Surinam grass; Postemergence, 62 g ai/ha): 0 | Plant response rating, Surinam Grass (Surinam grass; Postemergence, 125 g ai/ha): 0 | Plant response rating, Surinam Grass (Surinam grass; Postemergence, 250 g ai/ha): 0 | Plant response rating (0 to 100), Surinam Grass (Surinam grass; Preemergence, 250 g ai/ha): 100 | Surinam Grass plant response rating (Surinam grass; 125 g ai/ha): 100 | Bermudagrass plant response rating (bermudagrass; [6]): 100 | Bermudagrass plant response rating (bermudagrass; [7]): 100 | Plant response rating (0 to 100), Bermudagrass (bermudagrass; Postemergence, 31 g ai/ha): 0 | Plant response rating, Bermudagrass (bermudagrass; Postemergence, 62 g ai/ha): 0 | Plant response rating, Bermudagrass (bermudagrass; Postemergence, 125 g ai/ha): 0 | Plant response rating, Bermudagrass (bermudagrass; Postemergence, 250 g ai/ha): 40 | Plant response rating (0 to 100), Bermudagrass (bermudagrass; Preemergence, 250 g ai/ha): 100 | Bermudagrass plant response rating (bermudagrass; [8]): 100 | Morningglory plant response rating (morningglory; [9]): 60 | Morningglory plant response rating (morningglory; [10]): 100 | Morningglory plant response rating (morningglory; [11]): 80 | Plant response rating, Morningglory (morningglory; [12]): 90 | Lambsquarters plant response rating (lambsquarters; [6]): 0 | Lambsquarters plant response rating (lambsquarters; [7]): 70 | Plant response rating (0 to 100), Lambsquarters (lambsquarters; Postemergence, 31 g ai/ha): 0 | Plant response rating, Lambsquarters (lambsquarters; Postemergence, 62 g ai/ha): 0 | Plant response rating, Lambsquarters (lambsquarters; Postemergence, 125 g ai/ha): 0 | Plant response rating, Lambsquarters (lambsquarters; Postemergence, 250 g ai/ha): 0 | Plant response rating (0 to 100), Lambsquarters (lambsquarters; Preemergence, 250 g ai/ha): 100 | Lambsquarters plant response rating (lambsquarters; [8]): 100 | Plant response rating (0 to 100), Soybean (soybean; Postemergence, 31 g ai/ha): 40 | Plant response rating (0 to 100), Soybean (soybean; Postemergence, 62 g ai/ha): 50 | Plant response rating, Soybean (soybean; Postemergence, 125 g ai/ha): 50 | Plant response rating, Soybean (soybean; Postemergence, 250 g ai/ha): 50 | Plant response rating (0 to 100), Soybean (soybean; Preemergence, 250 g ai/ha): 70 | Soybean plant response rating (soybean; [8]): 50 | Cocklebur plant response rating (cocklebur; [6]): 0 | Cocklebur plant response rating (cocklebur; [7]): 0 | Plant response rating (0 to 100), Cocklebur (cocklebur; Postemergence, 31 g ai/ha): 0 | Plant response rating, Cocklebur (cocklebur; Postemergence, 62 g ai/ha): 0 | Plant response rating, Cocklebur (cocklebur; Postemergence, 125 g ai/ha): 0 | Plant response rating, Cocklebur (cocklebur; Postemergence, 250 g ai/ha): 10 | Plant response rating (0 to 100), Cocklebur (cocklebur; Preemergence, 250 g ai/ha): 100 | Cocklebur plant response rating (cocklebur; [8]): 70 | Goosegrass plant response rating (Goosegrass; [6]): 80 | Goosegrass plant response rating (Goosegrass; [7]): 100 | Plant response rating (0 to 100), Goosegrass (Goosegrass; Postemergence, 31 g ai/ha): 0 | Plant response rating, Goosegrass (Goosegrass; Postemergence, 62 g ai/ha): 0 | Plant response rating, Goosegrass (Goosegrass; Postemergence, 125 g ai/ha): 0 | Plant response rating, Goosegrass (Goosegrass; Postemergence, 250 g ai/ha): 0 | Plant response rating (0 to 100), Goosegrass (Goosegrass; Preemergence, 250 g ai/ha): 100 | Goosegrass plant response rating (Goosegrass; [8]): 100 | Plant response rating, Barnyardgrass (barnyardgrass [4]; 31 g ai/ha, scale 0 to 100 (0 no effect, 100 complete control)): 0 | Plant response rating, Barnyardgrass (barnyardgrass [4]; 62 g ai/ha, scale 0 to 100, 0 no effect, 100 complete control, 13 to 15 days): 0 | Plant response rating, Barnyardgrass (barnyardgrass [4]; 125 g ai/ha, scale 0 to 100, 0 no effect, 100 complete control, 13 to 15 days): 55 | Plant response rating, Barnyardgrass (barnyardgrass [4]; 250 g ai/ha, scale 0 to 100 (0 no effect, 100 complete control)): 85 | Ryegrass, Italian plant response rating (Italian ryegrass; 62 g ai/ha): 50 | Plant response rating (0 to 100), Ryegrass, Italian (Italian ryegrass; Postemergence, 31 g ai/ha): 0 | Plant response rating (0 to 100), Ryegrass, Italian (Italian ryegrass; Postemergence, 62 g ai/ha): 0 | Plant response rating, Ryegrass, Italian (Italian ryegrass; Postemergence, 125 g ai/ha): 0 | Plant response rating, Ryegrass, Italian (Italian ryegrass; Postemergence, 250 g ai/ha): 0 | Plant response rating (0 to 100), Ryegrass, Italian (Italian ryegrass; Preemergence, 250 g ai/ha): 100 | Ryegrass, Italian plant response rating (Italian ryegrass; 125 g ai/ha): 50 | Foxtail, Giant plant response rating (giant foxtail; [9]): 80 | Foxtail, Giant plant response rating (giant foxtail; [10]): 90 | Foxtail, Giant plant response rating (giant foxtail; [11]): 100 | Plant response rating, Foxtail, Giant (giant foxtail; [12]): 100 | Kochia plant response rating (kochia; [6]): 100 | Kochia plant response rating (kochia; [7]): 100 | Plant response rating (0 to 100), Kochia (kochia; Postemergence, 31 g ai/ha): 0 | Plant response rating, Kochia (kochia; Postemergence, 62 g ai/ha): 0 | Plant response rating, Kochia (kochia; Postemergence, 125 g ai/ha): 5 | Plant response rating, Kochia (kochia; Postemergence, 250 g ai/ha): 5 | Plant response rating (0 to 100), Kochia (kochia; Preemergence, 250 g ai/ha): 100 | Kochia plant response rating (kochia; [8]): 100 | Barnyardgrass plant response rating (barnyardgrass [5]; [9]): 70 | Barnyardgrass plant response rating (barnyardgrass [5]; [10]): 80 | Barnyardgrass plant response rating (barnyardgrass [5]; [11]): 90 | Plant response rating, Barnyardgrass (barnyardgrass [5]; [12]): 100
